The source of these data is patent US20140148432A1, “Compounds for the Treatment of Neurological Disorders” (priority 2009, published 2014).

Like-named read-outs stand apart in the source and are kept apart here.

Data set [1] has as its target GluN1/GluN2D subtype of NMDA receptors (Rattus norvegicus, UniProt Q62645). Description: NMDA receptor subunit selectivity, GluN1/GluN2D in Xenopus oocytes. The class given is cell-based. Conditions: 2 min; 10 μM antagonist with 50 μM glutamate and 30 μM glycine, two min; agonists alone = 100%; read-out: GluN2D % Current Remaining. As to the method: (§1) Stage V and VI oocytes were surgically removed from the ovaries of large, well-fed and healthy Xenopus laevis anesthetized with 3-amino-benzoic acid ethyl ester (3 gm/l). Clusters of isolated oocytes were incubated with 292 U/ml Worthington (Freehold, N.J.) type IV collagenase or 1.3 mg/ml collagenase (Life Technologies, Gaithersburg, Md.; 17018-029) for 2 hr in Ca^2+-free solution comprised of (in mM) 115 NaCl, 2.5 KCl, and 10 HEPES, pH 7.5, with slow agitation to remove the follicular cell layer. Oocytes were then washed in the same solution supplemented with 1.8 mM CaCl2 and maintained in Barth's solution comprised of (in mM): 88 NaCl, 1 KCl, 2.4 NaHCO3, 10 HEPES, 0.82 MgSO4, 0.33 Ca(NO3)2, and 0.91 CaCl2 and supplemented with 100 μg/ml gentamycin, 10 μg/ml streptomycin, and 10 μg/ml penicillin. Oocytes were manually defolliculated and injected within 24 hrs of isolation with 3-5 ng of GluN1 subunit cRNA and 7-10 ng of GluN2 cRNA subunit in a 50 nl volume, and incubated in Barth's solution at 18° C. for 2-7 d. Glass injection pipettes had tip sizes ranging from 10-20 microns, and were backfilled with mineral oil. cRNA was synthesized from linearized template cDNA for rat glutamate receptor subunits according to manufacturer specifications (Ambion).
(§2) Two electrode voltage-clamp recordings were made 2-7 days post-injection. Oocytes were placed in a dual-track plexiglass recording chamber with a single perfusion line that splits in a Y-configuration to perfuse two oocytes. Dual recordings were made at room temperature (23° C.) using two Warner 00725B two-electrode voltage clamp amplifiers, arranged as recommended by the manufacturer. Glass microelectrodes (1-10 Megaohms) were filled with 300 mM KCl (voltage electrode) or 3 M KCl (current electrode). The bath clamps communicated across silver chloride wires placed into each side of the recording chamber, both of which were assumed to be at a reference potential of 0 mV. Oocytes were perfused with a solution comprised of (in mM) 90 NaCl, 1 KCl, 10 HEPES, […] and 0.5 BaCl2; pH was adjusted by addition of 1-3 M NaOH or HCl. Oocytes were recorded under voltage clamp at −40 mV. Final concentrations for glutamate and glycine were 50 μM and 30 μM, respectively. Concentration-response curves for experimental compounds were obtained by applying in successive fashion maximal glutamate/glycine, followed by glutamate/glycine plus variable concentrations of experimental compounds. Dose response curves consisting of 4 to 8 concentrations were obtained in this manner. The baseline leak current at −40 mV was measured before and after recording, and the full recording linearly corrected for any change in leak current. The level of inhibition by applied experimental compounds was expressed as a percent of the initial glutamate response, and averaged together across oocytes from multiple experiments. Results were pooled, and the average percent responses at antagonist concentrations were fit by the equation,
(§3) GluN1/GluN2A and GluN1/GluN2D subtype of NMDA receptors were expressed in Xenopus laevis as described in Example 13. Here, a 10 μM concentration of the antagonist was perfused with 50 μM glutamate and 30 μM glycine onto the oocyte for two min and the remaining current in the presence of the antagonist was compared to the maximal current obtained with 50 μM glutamate and 30 μM glycine alone (defined as 100%).

The target in data set [2] is T1, human ether-a-go-go potassium channel (hERG) expressed in HEK293 cells (Homo sapiens, UniProt Q12809).
T1 construct: expressed in transfected cells; host or cells: HEK293 cells
Put plainly: hERG binding, displacement of [3H]-astemizole. Conditions: 10 μM test compound, 1.5 nM [3H]-astemizole, duplicate. As to the method: (§4) Binding to the human ether-a-go-go potassium channel (hERG) expressed in HEK293 cells by displacement of 1.5 nM [3H]-astemizole. Each result represents the average of displacement binding experiments done in duplicate at 10 uM of the test compound. Percent displacement of 0.25 nM [3H]-prazosin from Wistar rat brain membranes. Each result represents the average of displacement binding experiments done in duplicate at 3 μM of the test compound.
On the technique in general: Block of hERG is tested as a sign of cardiac risk.

Data set [3] deals with α1-Adrenergic. Description: α1-Adrenergic binding, displacement of [3H]-prazosin from brain membranes. The settings on record: 3 μM test compound, 0.25 nM [3H]-prazosin, Wistar rat brain membranes, duplicate. The method, then: as §4
For data set [4], the target named is GluN1/GluN2B receptors (Homo sapiens, UniProt Q05586+Q13224). Put plainly: IC50 of GluN1/GluN2B receptors expressed in Xenopus oocytes (two electrode voltage-clamp), human. It counts as cell-based. Conditions: for Human pH Boost Ratio (IC50 pH 7.6/IC50 pH 6.9): IC50 at pH 7.6 divided by IC50 at pH 6.9; for IC50: 30 μM glycine. For orientation: In two-electrode clamp one electrode senses voltage and the other passes current.

Data set [5] deals with GluN1/GluN2A subtype of NMDA receptors (Rattus norvegicus, UniProt Q00959). Put plainly: NMDA receptor subunit selectivity, GluN1/GluN2A in Xenopus oocytes. The class given is cell-based. Conditions: 2 min; 10 μM antagonist with 50 μM glutamate and 30 μM glycine, two min; agonists alone = 100%; read-out: GluN2A % Current Remaining. The method, then: as §1, §2, §3
The target of data set [6] is GluN1/GluN2B receptors (Rattus norvegicus, UniProt P35439+Q00960). Put plainly: IC50 of GluN1/GluN2B receptors expressed in Xenopus oocytes (two electrode voltage-clamp), rat. It counts as cell-based. The settings on record: pH 7.4, 50 μM glutamate, 30 μM glycine. The method, then: as §1, §2
Percent Response=(100−minimum)/(1+([conc]/IC50)^nH)+minimum
where minimum is the residual percent response in saturating concentration of the experimental compounds, IC50 is the concentration of antagonist that causes half of the achievable inhibition, and nH is a slope factor describing steepness of the inhibition curve. Minimum was constrained to be greater than or equal to 0.
Recordings were made at pH 6.9, pH 7.4, and pH 7.6. The pH Boost ratio calculated by dividing the IC50 measured at pH 7.6 by the IC50 measured at pH 6.9.

Data set [7] concerns the target GluN1/GluN2B-NMDA receptors (Homo sapiens, UniProt Q05586+Q13224). Description: Noncompetitive block of GluN1/GluN2B-NMDA receptors in Xenopus oocytes. Conditions: 0.1 μM compound 24; increasing glutamate (30 μM glycine) or increasing glycine (30 μM glutamate). It counts as cell-based. The method, then: Results shown are the mean±SEM of 7 (panel A) or 6 (panel B) oocytes.
Stage V and VI oocytes were surgically removed from the ovaries of large, well-fed and healthy Xenopus laevis anesthetized with 3-amino-benzoic acid ethyl ester (3 gm/l). Clusters of isolated oocytes were incubated with 292 U/ml Worthington (Freehold, N.J.) type IV collagenase or 1.3 mg/ml collagenase (Life Technologies, Gaithersburg, Md.; 17018-029) for 2 hr in Ca^2+-free solution comprised of (in mM) 115 NaCl, 2.5 KCl, and 10 HEPES, pH 7.5, with slow agitation to remove the follicular cell layer. Oocytes were then washed in the same solution supplemented with 1.8 mM CaCl2 and maintained in Barth's solution comprised of (in mM): 88 NaCl, 1 KCl, 2.4 NaHCO3, 10 HEPES, 0.82 MgSO4, 0.33 Ca(NO3)2, and 0.91 CaCl2 and supplemented with 100 μg/ml gentamycin, 10 μg/ml streptomycin, and 10 μg/ml penicillin. […]
Two electrode voltage-clamp recordings were made 2-7 days post-injection. […] Oocytes were recorded under voltage clamp at −40 mV. […] The baseline leak current at −40 mV was measured before and after recording, and the full recording linearly corrected for any change in leak current. The level of inhibition by applied experimental compounds was expressed as a percent of the initial glutamate response, and averaged together across oocytes from multiple experiments. […]

Setting [8] is: pH 6.9, 50 μM glutamate, read-out: Human pH 6.9 IC50.
[9] abbreviates: pH 7.4, 50 μM glutamate, read-out: Human pH 7.4 IC50.

Chain of GluN1/GluN2B receptors (Homo sapiens, UniProt Q05586+Q13224) (Q13224 27-1484, other chains not shown): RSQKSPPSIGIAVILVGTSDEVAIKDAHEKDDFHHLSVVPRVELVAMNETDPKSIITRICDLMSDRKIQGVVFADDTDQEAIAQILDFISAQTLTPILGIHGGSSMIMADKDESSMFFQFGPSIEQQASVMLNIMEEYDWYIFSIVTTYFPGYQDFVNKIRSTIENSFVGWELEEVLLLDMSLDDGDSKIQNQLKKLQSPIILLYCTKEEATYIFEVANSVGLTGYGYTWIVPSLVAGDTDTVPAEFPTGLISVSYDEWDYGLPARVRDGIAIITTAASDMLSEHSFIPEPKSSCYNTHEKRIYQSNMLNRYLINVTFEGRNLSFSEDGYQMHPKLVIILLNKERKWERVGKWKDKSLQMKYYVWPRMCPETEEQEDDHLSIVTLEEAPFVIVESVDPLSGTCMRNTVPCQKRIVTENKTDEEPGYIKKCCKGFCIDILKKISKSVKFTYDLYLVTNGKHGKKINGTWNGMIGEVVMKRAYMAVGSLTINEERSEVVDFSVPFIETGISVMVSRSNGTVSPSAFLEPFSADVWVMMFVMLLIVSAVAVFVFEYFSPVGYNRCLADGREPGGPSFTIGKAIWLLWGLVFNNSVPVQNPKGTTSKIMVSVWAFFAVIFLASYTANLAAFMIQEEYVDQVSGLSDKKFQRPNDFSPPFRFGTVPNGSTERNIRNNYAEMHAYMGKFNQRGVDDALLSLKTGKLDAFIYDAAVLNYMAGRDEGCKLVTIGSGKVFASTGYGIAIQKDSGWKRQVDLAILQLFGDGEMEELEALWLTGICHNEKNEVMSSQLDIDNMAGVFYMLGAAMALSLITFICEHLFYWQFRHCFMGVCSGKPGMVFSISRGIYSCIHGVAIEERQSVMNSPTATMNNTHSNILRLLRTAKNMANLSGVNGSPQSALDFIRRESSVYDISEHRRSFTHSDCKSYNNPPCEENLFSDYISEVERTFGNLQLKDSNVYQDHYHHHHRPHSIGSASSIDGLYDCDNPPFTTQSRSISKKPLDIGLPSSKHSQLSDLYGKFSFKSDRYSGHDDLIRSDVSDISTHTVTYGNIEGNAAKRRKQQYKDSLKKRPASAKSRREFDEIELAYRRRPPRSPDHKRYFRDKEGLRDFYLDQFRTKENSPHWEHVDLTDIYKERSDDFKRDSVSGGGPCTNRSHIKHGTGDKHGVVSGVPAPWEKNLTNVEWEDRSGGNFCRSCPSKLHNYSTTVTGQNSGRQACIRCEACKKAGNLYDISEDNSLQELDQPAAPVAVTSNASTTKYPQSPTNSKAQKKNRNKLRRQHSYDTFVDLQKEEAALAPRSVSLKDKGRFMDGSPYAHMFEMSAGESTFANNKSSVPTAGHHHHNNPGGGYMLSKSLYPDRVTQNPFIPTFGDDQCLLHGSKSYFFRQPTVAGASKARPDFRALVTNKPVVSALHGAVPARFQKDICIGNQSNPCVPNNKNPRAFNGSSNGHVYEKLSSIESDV
Chain of GluN1/GluN2D subtype of NMDA receptors (Q62645 28-1323, other chains not shown): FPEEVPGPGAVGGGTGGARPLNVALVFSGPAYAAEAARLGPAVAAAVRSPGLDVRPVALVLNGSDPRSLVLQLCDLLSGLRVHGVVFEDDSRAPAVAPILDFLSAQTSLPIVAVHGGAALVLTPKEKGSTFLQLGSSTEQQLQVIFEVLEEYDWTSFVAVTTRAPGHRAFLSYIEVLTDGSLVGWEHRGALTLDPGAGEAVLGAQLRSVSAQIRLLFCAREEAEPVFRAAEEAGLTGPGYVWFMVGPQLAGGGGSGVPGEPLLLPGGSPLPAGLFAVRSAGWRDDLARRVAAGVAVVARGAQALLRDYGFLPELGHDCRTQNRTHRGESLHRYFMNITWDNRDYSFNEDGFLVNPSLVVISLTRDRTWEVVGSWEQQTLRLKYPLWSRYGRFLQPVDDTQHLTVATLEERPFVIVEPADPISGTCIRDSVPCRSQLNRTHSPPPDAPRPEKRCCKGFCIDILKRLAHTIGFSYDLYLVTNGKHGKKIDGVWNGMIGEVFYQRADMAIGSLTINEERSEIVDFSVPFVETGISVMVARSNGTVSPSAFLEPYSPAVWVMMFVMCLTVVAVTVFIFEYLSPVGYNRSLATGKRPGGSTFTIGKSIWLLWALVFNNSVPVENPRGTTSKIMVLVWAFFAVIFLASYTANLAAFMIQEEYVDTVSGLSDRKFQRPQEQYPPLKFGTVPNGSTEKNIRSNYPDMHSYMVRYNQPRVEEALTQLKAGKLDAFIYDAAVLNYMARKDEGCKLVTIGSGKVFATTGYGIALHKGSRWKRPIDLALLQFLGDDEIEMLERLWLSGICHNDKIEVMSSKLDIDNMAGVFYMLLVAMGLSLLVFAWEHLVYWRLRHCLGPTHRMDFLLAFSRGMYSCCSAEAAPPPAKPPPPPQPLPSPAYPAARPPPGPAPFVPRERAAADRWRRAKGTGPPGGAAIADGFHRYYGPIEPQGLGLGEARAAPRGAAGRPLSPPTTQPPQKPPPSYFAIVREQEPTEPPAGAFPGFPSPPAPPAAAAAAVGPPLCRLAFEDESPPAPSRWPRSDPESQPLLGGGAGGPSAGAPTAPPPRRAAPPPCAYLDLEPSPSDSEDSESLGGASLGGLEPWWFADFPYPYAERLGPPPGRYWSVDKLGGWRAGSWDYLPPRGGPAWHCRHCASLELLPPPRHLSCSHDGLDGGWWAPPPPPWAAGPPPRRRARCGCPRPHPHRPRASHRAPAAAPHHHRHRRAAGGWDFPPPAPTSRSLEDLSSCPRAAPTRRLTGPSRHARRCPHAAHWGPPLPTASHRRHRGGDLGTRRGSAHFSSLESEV
Chain of GluN1/GluN2A subtype of NMDA receptors (Q00959 23-1464, other chains not shown): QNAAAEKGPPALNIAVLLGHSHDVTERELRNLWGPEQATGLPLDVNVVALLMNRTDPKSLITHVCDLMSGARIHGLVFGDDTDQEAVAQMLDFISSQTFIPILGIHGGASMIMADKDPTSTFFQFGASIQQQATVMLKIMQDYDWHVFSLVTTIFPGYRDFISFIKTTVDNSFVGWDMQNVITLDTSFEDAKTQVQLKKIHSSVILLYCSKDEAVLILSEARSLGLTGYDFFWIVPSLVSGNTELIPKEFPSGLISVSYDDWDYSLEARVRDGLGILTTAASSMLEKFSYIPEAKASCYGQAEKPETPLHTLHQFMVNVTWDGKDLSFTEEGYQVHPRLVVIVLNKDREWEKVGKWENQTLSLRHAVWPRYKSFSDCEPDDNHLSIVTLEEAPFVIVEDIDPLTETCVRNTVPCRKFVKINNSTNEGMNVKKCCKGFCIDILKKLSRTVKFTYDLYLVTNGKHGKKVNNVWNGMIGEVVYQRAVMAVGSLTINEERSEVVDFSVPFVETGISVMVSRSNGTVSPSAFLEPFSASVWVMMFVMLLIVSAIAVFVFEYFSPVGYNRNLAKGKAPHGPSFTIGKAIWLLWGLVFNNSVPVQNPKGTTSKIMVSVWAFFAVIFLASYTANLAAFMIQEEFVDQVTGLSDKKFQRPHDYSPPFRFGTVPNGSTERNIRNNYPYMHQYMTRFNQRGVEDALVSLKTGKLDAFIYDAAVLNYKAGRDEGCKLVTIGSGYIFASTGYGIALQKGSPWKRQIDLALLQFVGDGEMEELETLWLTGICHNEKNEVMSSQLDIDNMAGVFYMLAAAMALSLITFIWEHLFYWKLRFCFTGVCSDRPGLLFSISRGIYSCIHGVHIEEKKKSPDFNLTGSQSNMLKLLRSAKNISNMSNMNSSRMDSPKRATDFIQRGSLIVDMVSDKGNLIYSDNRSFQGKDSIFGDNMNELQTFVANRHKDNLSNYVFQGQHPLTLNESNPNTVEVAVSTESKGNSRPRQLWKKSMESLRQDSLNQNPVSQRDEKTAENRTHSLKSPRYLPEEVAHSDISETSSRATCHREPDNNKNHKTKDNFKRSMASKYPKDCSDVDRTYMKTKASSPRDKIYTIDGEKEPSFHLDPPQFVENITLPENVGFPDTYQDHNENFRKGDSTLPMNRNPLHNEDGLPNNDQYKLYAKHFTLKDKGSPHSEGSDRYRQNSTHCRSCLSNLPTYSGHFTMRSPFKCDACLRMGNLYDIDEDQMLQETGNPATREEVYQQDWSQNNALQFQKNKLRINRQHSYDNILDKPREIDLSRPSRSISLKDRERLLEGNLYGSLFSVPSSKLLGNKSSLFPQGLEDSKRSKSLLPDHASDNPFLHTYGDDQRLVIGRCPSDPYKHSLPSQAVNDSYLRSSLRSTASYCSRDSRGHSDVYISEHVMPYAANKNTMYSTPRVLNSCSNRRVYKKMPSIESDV

The term IC50 denotes the concentration at which inhibition is half-maximal. For the compound `O=C1CCc2cc(OCC3CN(C(=O)Nc4ccc(Cl)cc4)C3)ccc2N1` [Compound 21, N-(4-chlorophenyl)-3-(((2-oxo-1,2,3,4-tetrahydroquinolin-6-yl)oxy)methyl)azetidine-1-carboxamide], the remaining activity at 10 µM in data set [1] turned out to be 89.2%; in data set [5], 102%. Also, in data set [2], the “hERG Binding % Displacement @ 10 μM” value is reported as 25%. Moreover, the “α1-Adrenergic binding % Displacement @ 3 μM” value in data set [3] turned out to be 2%. Besides, the “Human pH Boost Ratio (IC50 pH 7.6/IC50 pH 6.9)” value (from here on “Human pH Boost Ratio”) in data set [4] is given as 1.7. Moreover, the values for the IC50 in data set [4] (setting [8]), in data set [4] (setting [9]) and in data set [6] were 103 nM, 170 nM and 166 nM, respectively.
For `O=C1CCc2cc(OCC3CCN(C(=O)Cc4ccc(Cl)cc4)CC3)ccc2N1` [Compound 15, 6-((1-(2-(4-chlorophenyl)acetyl)piperidin-4-yl)methoxy)-3,4-dihydroquinolin-2(1H)-one], the remaining activity at 10 µM in data set [1] stood at 101%; in data set [5] it was 96.3%. The “hERG Binding % Displacement @ 10 μM” value in data set [2] is listed as 18%. Also, the “α1-Adrenergic binding % Displacement @ 3 μM” value in data set [3] came out at 13%. For the same compound, the “Human pH Boost Ratio” value in data set [4] is 8.6. For the same compound, the IC50 in data set [4] (setting [8]) is 490 nM; in data set [4] (setting [9]), 2000 nM; in data set [6] it was 3200 nM.
For the compound `O=C1CCc2cc(OCC3CN(C(=O)Nc4ccc(C(F)(F)F)cc4)C3)ccc2N1` [Compound 24, 3-(((2-oxo-1,2,3,4-tetrahydroquinolin-6-yl)oxy)methyl)-N-(4-(trifluoromethyl)phenyl)azetidine-1-carboxamide], the remaining activity at 10 µM stood at 84.5% in data set [1] and 94.2% in data set [5]. For the same compound, in data set [7], the “Block on increasing glutamate and increasing glycine” value is on record as “cannot overcome the block”. The “hERG Binding % Displacement @ 10 μM” value in data set [2] is given as 68%. Moreover, in data set [3], the “α1-Adrenergic binding % Displacement @ 3 μM” value is 12%. In addition, the “Human pH Boost Ratio” value in data set [4] is given as 3.6. For the same compound, the values for the IC50 in data set [4] (setting [8]), in data set [4] (setting [9]) and in data set [6] were 27 nM, 74 nM and 54 nM, respectively.
As to `O=C1CCc2cc(OCC3CCN(C(=O)/C=C/c4ccc(Cl)c(Cl)c4)CC3)ccc2N1` [Compound 6, (E)-6-((1-(3-(3,4-dichlorophenyl)acryloyl)piperidin-4-yl)methoxy)-3,4-dihydroquinolin-2(1H)-one], the remaining activity at 10 µM stood at 101% in data set [1] and 103% in data set [5]. The “hERG Binding % Displacement @ 10 μM” value in data set [2] worked out at 85%. For the same compound, in data set [3], the “α1-Adrenergic binding % Displacement @ 3 μM” value stood at 28%. In addition, the “Human pH Boost Ratio” value in data set [4] is 1.1. Further, the IC50 in data set [4] (setting [8]) was 886 nM; in data set [4] (setting [9]), 1640 nM; in data set [6] it was 1270 nM.
Consider `O=C1CCc2cc(OCC3CN(C(=O)Nc4ccc(Cl)c(Cl)c4)C3)ccc2N1` [Compound 23, N-(3,4-dichlorophenyl)-3-(((2-oxo-1,2,3,4-tetrahydroquinolin-6-yl)oxy)methyl)azetidine-1-carboxamide], for which the values for the remaining activity at 10 µM in data set [1] and in data set [5] were 87.6% and 94.6%, respectively. In data set [2], the “hERG Binding % Displacement @ 10 μM” value is listed as 60%. Further, the “α1-Adrenergic binding % Displacement @ 3 μM” value in data set [3] is reported as 25%. Further, the “Human pH Boost Ratio” value in data set [4] turned out to be 3.0. Further, the IC50 was determined as 19 nM in data set [4] (setting [8]), 41 nM in data set [4] (setting [9]) and 53 nM in data set [6].
